Source: the NIST ThermoML archive (doi:10.1021/je200457q)

Key:
[1] = 298.15 K; 101.33 kPa; Liquid; Vibrating tube method
[2] = excess molar enthalpy (molar enthalpy of mixing); xn = mol fraction of the nth substance listed; conditions: 101 kPa, Liquid, Flow calorimetry

C=CC(C)(O)CCC=C(C)C (stereo not given) [3,7-dimethyl-1,6-octadien-3-ol]
Conditions	mass density [kg/m3]
[1]	857

C=CC(C)(O)CCC=C(C)C (stereo not given) [3,7-dimethyl-1,6-octadien-3-ol] + CC(C)O
excess molar enthalpy [kcal/mol], [2]
Conditions	283.15 K	298.15 K	313.15 K	328.15 K
x1 = 0.024	-0.00789	-0.00741	-0.00574	-0.00191
x1 = 0.048	-0.011	-0.0117	-0.00908	-0.00239
x1 = 0.097	-0.0141	-0.0148	-0.0115	-0.000717
x1 = 0.195	-0.0174	-0.0174	-0.0108	0.00621
x1 = 0.292	-0.0186	-0.0172	-0.00837	0.0131
x1 = 0.392	-0.0196	-0.0163	-0.0055	0.0184
x1 = 0.49	-0.0196	-0.0134	-0.00167	0.0215
x1 = 0.592	-0.0174	-0.00884	0.00191	0.022
x1 = 0.693	-0.012	-0.00287	0.00478	0.0184
x1 = 0.796	-0.00454	0.00143	0.00454	0.0131
x1 = 0.894	0.000717	0.00215	0.00167	0.00574
x1 = 0.948	0.000478	0.000717	0.000717	0.00263

C=CC(C)(O)CCC=C(C)C (stereo not given) [3,7-dimethyl-1,6-octadien-3-ol] + CCCCO
excess molar enthalpy [kcal/mol], [2]
Conditions	283.15 K	298.15 K	313.15 K	328.15 K
x1 = 0.042	-0.00311	-0.00717	-0.00717	-0.00526
x1 = 0.085	-0.00502	-0.0143	-0.0158	-0.022
x1 = 0.174	-0.00526	-0.0227	-0.0349	-0.0526
x1 = 0.265	-0.00287	-0.0241	-0.0466	-0.0724
x1 = 0.359	-0.000239	-0.0217	-0.0514	-0.082
x1 = 0.457	0.00215	-0.0182	-0.0509	-0.0837
x1 = 0.559	0.00574	-0.0136	-0.0447	-0.0779
x1 = 0.661	0.00956	-0.00669	-0.0351	-0.0624
x1 = 0.771	0.0136	0.000717	-0.022	-0.044
x1 = 0.884	0.0141	0.00621	-0.00741	-0.021
x1 = 0.943	0.0105	0.00526	-0.00191	-0.00884

C=CC(C)(O)CCC=C(C)C (stereo not given) [3,7-dimethyl-1,6-octadien-3-ol] + CCCO
excess molar enthalpy [kcal/mol], [2]
Conditions	283.15 K	298.15 K	313.15 K	328.15 K
x1 = 0.048	-0.0404	-0.0392	-0.0428	-0.0411
x1 = 0.096	-0.0772	-0.0786	-0.0786	-0.0698
x1 = 0.188	-0.13	-0.136	-0.134	-0.112
x1 = 0.29	-0.153	-0.167	-0.162	-0.131
x1 = 0.383	-0.154	-0.168	-0.161	-0.132
x1 = 0.491	-0.142	-0.148	-0.142	-0.119
x1 = 0.584	-0.121	-0.124	-0.123	-0.0997
x1 = 0.693	-0.0884	-0.0908	-0.0937	-0.0777
x1 = 0.794	-0.0588	-0.0614	-0.0686	-0.0574
x1 = 0.894	-0.027	-0.0311	-0.0356	-0.0304
x1 = 0.945	-0.0139	-0.0163	-0.0191	-0.0165

C=CC(C)(O)CCC=C(C)C (stereo not given) [3,7-dimethyl-1,6-octadien-3-ol] + CCO
excess molar enthalpy [kcal/mol], [2]
Conditions	283.15 K	298.15 K	313.15 K	328.15 K
x1 = 0.047	-0.0366	-0.0366	-0.0418	-0.0413
x1 = 0.094	-0.0741	-0.0805	-0.0839	-0.0798
x1 = 0.19	-0.143	-0.152	-0.157	-0.143
x1 = 0.29	-0.185	-0.198	-0.202	-0.18
x1 = 0.387	-0.191	-0.207	-0.212	-0.189
x1 = 0.481	-0.179	-0.19	-0.199	-0.177
x1 = 0.585	-0.152	-0.165	-0.17	-0.152
x1 = 0.695	-0.11	-0.121	-0.128	-0.114
x1 = 0.78	-0.0743	-0.0923	-0.101	-0.0875
x1 = 0.895	-0.0335	-0.0423	-0.0473	-0.0411
x1 = 0.946	-0.0165	-0.021	-0.0249	-0.0232

CCCCO [butan-1-ol]
Conditions	mass density [kg/m3]
[1]	805.71

CCO [ethanol]
Conditions	mass density [kg/m3]
[1]	785.46

CCCO [propan-1-ol]
Conditions	mass density [kg/m3]
[1]	799.56

CC(C)O [propan-2-ol]
Conditions	mass density [kg/m3]
[1]	781.23
